The text below walks through data of PMC9658316, “Discovery of Mitochondrial Complex I Inhibitors as Anticancer and Radiosensitizer Drugs Based on Compensatory Stimulation of Lactate Release” (Cancers, 2022).

The nature of data set [1]: Cell integrity by Trypan blue exclusion. It counts as cell-based. To be noted: cancer cells (cell line not specified); 24 h after exposure; read-out: viable cancer cells (Trypan blue exclusion). An excerpt: (§1) Mouse colorectal CT26 and breast 4T1 cancer cells as well as human cervix cancer SiHa and breast MDA-MD-231 cancer cells were acquired from ATCC where they are regularly authenticated by short tandem repeat profiling. They were stored according to the supplier’s instructions and used within 6 months after resuscitation of frozen aliquots. Cancer cells were maintained in DMEM (Life Technologies, ThermoFischer scientific, Merebelke, Belgium) supplemented with 10% heat-inactivated FBS. All cell lines were tested for mycoplasma contamination with the MycoAlert™ Mycoplasma Detection kit (#LT07-318; Lonza, Verviers, Belgium) before being used. Cell integrity was determined by the Trypan Blue exclusion method (using Bürker chambers) while cell growth was assessed by using the Presto Blue reagent (Life Technologies) according to manufacturer’s instructions.
Still, to support the anticancer potential of complex I inhibition, we also examined the cytotoxic effects of longer exposure of intact cancer cells to reference compound aa and hit compounds ag, aj and au. […] While the nature of cell death induced by aa derivatives is beyond the scope of this manuscript, alteration in mitochondria fitness and capacity to buffer calcium could be involved as previously reported.

For a further data set, the system named is CT26 colon cancer cells. The experiment in a line: Growth inhibitory effects on cultured CT26 cells (Presto Blue). Type of data set: cell-based, mouse. To be noted: CT26 monolayers, 1 µM, 72 h.
Description: as §1
(§2) Figure 4 Mitochondrial complex I activity inhibition (Assay #2). (A–D). Graphs depict changes in O2 consumption rate (OCR) measured with the Seahorse technology on permeabilized CT26 cancer cells upon successive addition of pyruvate/malate, the indicated inhibitor and succinate. OXPHOS I inhibitor IACS was used as a control in the experiments testing reference compound aa (A), and compound aa (10µM) was used as reference for testing au, ah and at derivatives (B–D) (n = 6 per compound). (E,F). Growth inhibitory effects of cultured CT26 (E) and 4T1 […] cancer cells exposed to 100 nM IACS or 1 µM aa, ag, aj and au compounds for 72 h; data represent the reduced extent (expressed as %) of cell viability (determined with Presto Blue) when compared with vehicle conditions (n = 3).

For the next data set, the system named is intact CT26 cancer cells. Put plainly: Seahorse basal OCR and ECAR in intact (non-permeabilized) CT26 cancer cells. Type of data set: cell-based, mouse. To be noted: non-permeabilized CT26 cells, 10 µM. How it is done:
(§3) L-lactate concentration was measured in a semi-automated manner using CMA Microdialysis AB enzymatic assay and a CMA 600 analyzer (Aurora Borealis, Schoonebeek, The Netherlands) as previously described. Briefly, cells (2 × 10^5 cells per well; 3 wells/condition) were seeded in 12-well plates with 2 mL of their routine culture medium. After 24 h, medium was replaced by 500 µL of DMEM containing 10 mmol/L D-glucose and supplemented with 2 mmol/L L-glutamine and 10% dialyzed FBS (Sigma-Aldrich), in the presence of the compounds or vehicle (DMSO). The initial concentration of L-lactate in the experimental medium was also assessed by including control wells containing only cell culture medium (no cells) on each plate. After incubation for 24 h, extracellular media were collected and deproteinized by centrifugation (15 min, 10,000 rpm, 4 °C) in 10 kDa cut-off filter tubes (VWR, Avantor, Leuven, Belgium). Differences in L-lactate concentrations between control and treated cells were calculated and normalized by the protein content in each well and expressed in µmol/h/mg protein. Oxygen-consumption rate (OCR) was measured using the Seahorse XF96 plate reader as previously reported. Briefly, cells (2 × 10^4 cells per well) were first permeabilized with 1 nM Seahorse XF Plasma Membrane Permeabilizer (#102504-100; Agilent, Machelen, Belgium) and respiration was stimulated by adding 10 mM pyruvate, 5 mM malate, and 2 mM ADP. After baseline OCR determination, compounds were added (to inhibit complex I) followed by 10 mM succinate to fuel complex II and rescue the electron transport chain. In some experiments, the effects of selected hits on basal OCR were evaluated in intact cells (including in the presence of MCT1/2 inhibitor AR-C155858 [29] or methylpyruvate). OCR data were normalized according to protein content in each well.
Since other lactate transporters could be involved, we also used methylpyruvate which can bypass the need for a mitochondrial carrier and mimic the result of lactate oxidation by a mitochondrial LDH or ensure the delivery of pyruvate into the mitochondria matrix. […] In the same experiments carried out on non-permeabilized cancer cells, the extent of basal OCR inhibition in response to 10 µM aa was similar to that observed with 100 nM IACS-010759 (−52 ± 5% and −45 ± 6%, respectively) and mirrored by an increase in extracellular acidification rate (ECAR) (+36 ± 11% and +29 ± 9%, respectively).

A further data set deals with breast 4T1 cancer cells. The experiment in a line: Growth inhibitory effects on cultured 4T1 cells (Presto Blue). It counts as cell-based, mouse. To be noted: 4T1 monolayers, 1 µM, 72 h, compared with CT26.
Description: as §1, §2

In data set [2] the test system is human cervix Siha cancer cells. Put plainly: Growth inhibitory effects on human cancer cells (Presto Blue), SiHa vs MDA-MB-231. Type of data set: cell-based. To be noted: 1 µM.
Description: as §1
Suppl. Figure S3. Growth inhibitory effects of hit compounds on human cancer cells. MDA-M B-231 (A) and Siha (B) cancer cells were exposed to 100 nM IACS or 1 µM aa, ag, aj and au compounds; data represent the reduced extent (expressed as %) of cell viability (determined with Presto Blue) when compared with vehicle conditions (n=3).
(also on this page, place not known: 60Growth inhibitory effects (%) MDA-MB-231 aa au 60Growth inhibitory effects (%))

In data set [3] the test system is colorectal CT26 cancer cells. The experiment in a line: Compound-induced L-lactate release (Assay #1), CT26. It counts as cell-based, mouse. To be noted: 10 µM, 24 h exposure, L-lactate secretion above basal release. How it is done:
as §3
Figure 3 Compound-induced L-lactate release (Assay #1). Culture medium was collected after 24 h exposure to the indicated compounds (10 µM) and the amount of extracellular L-lactate release was determined in a semi-automated manner; dose-dependent effects of complex I inhibitor IACS are shown on the right (shaded bars). Bar graph depicts the extent of L-lactate secretion above the basal release as determined in the absence of any compound (n = 3, ** p < 0.01 for increased L-lactate release vs. reference compound aa).

A further data set concerns the target mitochondrial complex I (Mus musculus, UniProt P03888+Q91WD5+Q9DC70). Put plainly: Seahorse OCR in permeabilized CT26 cancer cells, mitochondrial complex I inhibition (Assay #2). It counts as cell-based. How it is done:
as §3
(A–D). Graphs depict changes in O2 consumption rate (OCR) measured with the Seahorse technology on permeabilized CT26 cancer cells upon successive addition of pyruvate/malate, the indicated inhibitor and succinate. […] (E,F).

Take `NC(=O)c1nnn(Cc2cc(Cl)c(C(=O)c3ccc(Cl)cc3)c(Cl)c2)c1N` [compound aa, carboxyamidotriazole, reference compound]: the viability at 24 h in data set [1] came out at 90.9 ± 5.1%. The “cytotoxic / growth inhibitory effects” value in the data set with CT26 colon cancer cells is on record as “very limited effects”. The “increase in extracellular acidification rate (ECAR)” value with intact CT26 cancer cells was “+36 ± 11%”. In addition, in the data set with breast 4T1 cancer cells, the growth inhibitory activity entry is given as “more significant growth inhibitory activity”. In addition, in data set [2], the “antiproliferative effects in Siha compared with MDA-MB-231 cells” value was “Larger antiproliferative effects”. For the same molecule, in data set [3], the “[LAC] increase” value was about 2 µmol/h/mg. At mitochondrial complex I, the “concentration at which complex I-dependent OCR reduction was detectable” value is given as 1 µM. In addition, at mitochondrial complex I (10 mM succinate), the “reversal of OCR inhibition upon succinate addition” value is recorded as “full reversal of OCR inhibition”.
